Assay results as given in PubChem BioAssay (NCI).
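Compound exposure: 48 hours, 5 concentrations, 96-well plates. TGI is the concentration that stops growth completely.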

Columns and labels:
Assay in all cases: DTP human tumour cell line panel, 48 h
786-0 renal = tested on: 786-0 renal
A549 NSCLC = tested on: A549 NSCLC
HCT-116 colon = tested on: HCT-116 colon
HCT-15 colon = tested on: HCT-15 colon
K-562 leukemia = tested on: K-562 leukemia
MOLT-4 leukemia = tested on: MOLT-4 leukemia
NCI-H226 lung = tested on: NCI-H226 lung
OVCAR-5 ovarian = tested on: OVCAR-5 ovarian
OVCAR-8 ovarian = tested on: OVCAR-8 ovarian
RPMI-8226 leukemia = tested on: RPMI-8226 leukemia
SF-539 CNS = tested on: SF-539 CNS
SN12C renal = tested on: SN12C renal
SW-620 colon = tested on: SW-620 colon
HCC-2998 colon = tested on: HCC-2998 colon
RXF 393 renal = tested on: RXF 393 renal

Compound | TGI (786-0 renal) [µM] | TGI (A549 NSCLC) [µM] | TGI (HCT-116 colon) [µM] | TGI (HCT-15 colon) [µM] | TGI (K-562 leukemia) [µM] | TGI (MOLT-4 leukemia) [µM] | TGI (NCI-H226 lung) [µM] | TGI (OVCAR-5 ovarian) [µM] | TGI (OVCAR-8 ovarian) [µM] | TGI (RPMI-8226 leukemia) [µM] | TGI (SF-539 CNS) [µM] | TGI (SN12C renal) [µM] | TGI (SW-620 colon) [µM] | TGI (HCC-2998 colon) [µM] | TGI (RXF 393 renal) [µM]
O=c1c2cc(S(=O)(=O)O)ccc2nc(COc2ccc(Oc3ccc(Cl)cc3Cl)cc2)n1-c1ccc(Cl)cc1Oc1c(Cl)cccc1Cl | 64.6 | 72.1 | 67.8 | 56.6 | > 100 | > 100 | 49.6 | 60.6 | 75.1 | 64.7 | 33.5 | 99.4 | 79.6 |  | 
c1ccc2c(c1)nc1n2CNC1 | > 100 | > 100 | > 100 | > 100 | > 100 | > 100 |  | > 100 |  | > 100 | > 100 | > 100 | > 100 | > 100 | > 100
CN(C)CCCN1c2ccccc2Sc2cnccc21 | > 100 | > 100 | > 100 | > 100 | > 100 | > 100 | > 100 | > 100 | > 100 | > 100 | > 100 | > 100 | > 100 |  | > 100
CC(=O)OCCOCn1cnc2c(Cl)nc(Cl)nc21 | 58 |  | 32 | 14.5 | 5.43 | 40 | 50.6 | 36.9 | 44.2 | 33.5 |  | 33.9 | 30.7 | 25.6 | 
CCOP(=O)(CN1CCNCCNCC1)OCC | > 100 | > 100 | > 100 | > 100 | > 100 | > 100 | > 100 | > 100 | > 100 | > 100 | > 100 | > 100 | > 100 | > 100 | 
CC(=O)OC1(C)C=CC(=O)C=C1 | 47.9 | > 100 | > 100 | > 100 | > 100 | > 100 | 73 | > 100 | > 100 | > 100 | > 100 | > 100 | > 100 | > 100 | 
COc1cc(O)c2c(c1)OCC(Cc1ccc(O)cc1)C2=O (stereo unspecified) | > 100 | > 100 | > 100 | > 100 | > 100 | > 100 | > 100 | > 100 | > 100 | > 100 | > 100 | > 100 | > 100 |  | > 100
Cc1nn(C(=O)Cc2ccccc2)c2c1C(c1ccc(N(C)C)cc1)SC(N)=N2 (stereo unspecified) | > 100 | > 100 | > 100 | > 100 |  | > 100 | > 100 |  | > 100 | > 100 | > 100 | > 100 | > 100 | > 100 | 
CC(C)Oc1ccc2c(c1)OCC1Cc3ccccc3OC21 (stereo unspecified) | > 100 | > 100 | > 100 | 46.2 | > 100 | > 100 | > 100 | > 100 | > 100 | > 100 | > 100 | > 100 | > 100 | > 100 | 
Cc1[nH]n(C2=NCCN2)c(=O)c1Cc1ccccc1 | > 100 | > 100 | > 100 | > 100 | > 100 | > 100 | > 100 | > 100 | > 100 | > 100 | > 100 |  | > 100 |  | > 100
COc1ccc(N2C(=O)C3ON(C(C(N)=O)c4ccccc4)C(c4cc5ccccc5c5ccccc45)C3C2=O)cc1 (stereo unspecified) | > 50 | > 50 | > 50 | > 50 | > 50 | 46.9 | > 50 | > 50 | > 50 |  | > 50 | > 50 | > 50 |  | > 50
N#C/C(N)=C(\C#N)N=CN | > 100 | > 100 | > 100 | > 100 | > 100 | > 100 |  | > 100 | > 100 | > 100 | > 100 | > 100 | > 100 | > 100 | 
O=C(Cc1ccccc1)N/N=C/c1ccccc1O | > 100 | > 100 | > 100 | > 100 | > 100 | > 100 | 81.5 | > 100 | > 100 | > 100 | > 100 | > 100 | > 100 | > 100 | 
NNc1nncc2n[nH]nc12 | > 100 | > 100 | > 100 | > 100 | > 100 | > 100 | > 100 | > 100 | > 100 | > 100 | > 100 | > 100 | > 100 |  | > 100
COc1ccc(-c2cc(=O)c3ccccc3[nH]2)c(OC)c1 | > 100 | > 100 | > 100 | > 100 | > 100 | > 100 |  |  | > 100 | > 100 | > 100 | > 100 | > 100 |  | > 100
COc1cc2c(cc1OC)CCc1cc(OC)c(OC)cc1CC2 | > 100 | > 100 | > 100 | > 100 | > 100 | > 100 | > 100 | > 100 | > 100 |  | > 100 | > 100 | > 100 | > 100 | 
CC1ON2CCCC2[C@H]1C(=O)N1C2CC3CCC2(CS1(=O)=O)C3(C)C (stereo partly specified) | > 100 | > 100 | > 100 | > 100 | > 100 | > 100 | > 100 | > 100 | > 100 | > 100 | > 100 | > 100 | > 100 |  | > 100
